Assays:
Format in all cases: in vivo
[1] = system: soybean (Glycine max); experiment: Test A1 postemergence, soybean; settings: Postemergence
Outline: (§1)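 Seeds were first planted into a blend of loam soil and sand and given a preemergence directed soil spray. In parallel, pots of the same soil were sown for postemergence application once plants reached 2 to 10 cm and the one- to two-leaf stage. Both used surfactant-containing non-phytotoxic solvent formulations.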

[2] = system: barnyardgrass (Echinochloa crus-galli); experiment: Test B1 flooded paddy test, barnyardgrass; settings: 250 g ai/ha, Flood, applied to paddy water, 2-leaf stage, visually evaluated after 10 to 14 days
From the text: (§2) A dash (-) response means no test result.

[3] = system: rice (Oryza sativa); experiment: Test B1 flooded paddy test, rice; settings: 250 g ai/ha, Flood, applied to paddy water, 2-leaf stage, visually evaluated after 10 to 14 days
From the text: as §2

[4] = system: Pigweed, Palmer (palmer amaranth, palmer pigweed, Amaranthus palmeri); experiment: Test A1 preemergence, Pigweed, Palmer
Outline: (§3)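 Plants grown in pots of loam/sand mix; preemergence = soil-directed spray on seeded pots, postemergence = spray at 1–2 leaves, height 2–10 cm; test chemicals formulated in non-phytotoxic solvent with surfactant.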

[5] = system: wheat (Triticum aestivum); experiment: Test A1 preemergence, wheat
Outline: as §3

[6] = system: goosegrass (Eleusine indica); experiment: Test A1 preemergence, goosegrass
Outline: as §3

[7] = system: Ryegrass, Italian (Italian ryegrass, Lolium multiflorum); experiment: Test A1 preemergence, Ryegrass, Italian
Outline: as §3

[8] = system: wheat (Triticum aestivum); experiment: Test A1 postemergence, wheat; settings: Postemergence
Outline: as §1

[9] = system: blackgrass (Alopecurus myosuroides); experiment: Test A1 preemergence, blackgrass
Outline: as §3

[10] = system: ragweed (common ragweed, Ambrosia artemisiifolia); experiment: Test A1 preemergence, ragweed
Outline: as §3

[11] = system: soybean (Glycine max); experiment: Test A1 preemergence, soybean
Outline: as §3

[12] = system: Foxtail, Giant (giant foxtail, Setaria faberi); experiment: Test A1 postemergence, Foxtail, Giant; settings: Postemergence
Outline: as §1

[13] = system: horseweed (Erigeron canadensis); experiment: Test A1 postemergence, horseweed; settings: Postemergence
Outline: as §1

[14] = system: corn (Zea mays); experiment: Test A1 postemergence, corn; settings: Postemergence
Outline: as §3

[15] = system: ducksalad (Heteranthera limosa); experiment: Test B1 flooded paddy test, ducksalad; settings: 250 g ai/ha, Flood, applied to paddy water, 2-leaf stage, visually evaluated after 10 to 14 days
From the text: as §2

[16] = system: Oat, Wild (wild oat, Avena fatua); experiment: Test A1 postemergence, Oat, Wild; settings: Postemergence
Outline: (§4)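 Test compounds were formulated in a non-phytotoxic solvent mixture containing a surfactant. For preemergence, seeds sown in a loam soil–sand blend received a directed soil spray. For postemergence, potted plants in the same soil, 2 to 10 cm tall at the one- to two-leaf stage, were sprayed.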

[17] = system: Oat, Wild (wild oat, Avena fatua); experiment: Test A1 preemergence, Oat, Wild
Outline: as §3

[18] = system: kochia (Bassia scoparia); experiment: Test A1 preemergence, kochia
Outline: as §3

[19] = system: ragweed (common ragweed, Ambrosia artemisiifolia); experiment: Test A1 postemergence, ragweed; settings: Postemergence
Outline: as §4

[20] = system: blackgrass (Alopecurus myosuroides); experiment: Test A1 postemergence, blackgrass; settings: Postemergence, 0 to 100 scale (0 no effect, 100 complete control)
Outline: as §1

[21] = system: galium (catchweed bedstraw, Galium aparine); experiment: Test A1 postemergence, galium; settings: Postemergence
Outline: as §1

[22] = system: corn (Zea mays); experiment: Test A1 preemergence, corn
Outline: as §4

[23] = system: Ryegrass, Italian (Italian ryegrass, Lolium multiflorum); experiment: Test A1 postemergence, Ryegrass, Italian; settings: Postemergence
Outline: as §1

[24] = system: Foxtail, Giant (giant foxtail, Setaria faberi); experiment: Test A1 preemergence, Foxtail, Giant
Outline: as §3

[25] = system: kochia (Bassia scoparia); experiment: Test A1 postemergence, kochia; settings: Postemergence
Outline: as §1

[26] = system: goosegrass (Eleusine indica); experiment: Test A1 postemergence, goosegrass; settings: Postemergence
Outline: as §1

[27] = system: Pigweed, Palmer (palmer amaranth, palmer pigweed, Amaranthus palmeri); experiment: Test A1 postemergence, Pigweed, Palmer; settings: Postemergence
Outline: as §4

[28] = 31 g ai/ha, 0 to 100 scale (0 no effect, 100 complete control), 10 days
[29] = 31 g ai/ha, 0 to 100 scale (0 no effect, 100 complete control)
[30] = 125 g ai/ha, 0 to 100 scale, 0 no effect, 100 complete control

## Cc1cc(C2CC2)c(C2=NOC3CCCC23)cc1NS(=O)(=O)C(F)(F)F (stereo not drawn) [Compound 307]
[1]; [28]
  Plant response rating, Soybean: 10
[1]; 125 g ai/ha, 0 to 100 scale
  Plant response rating, Soybean: 50
[2]
  Plant response rating, Barnyardgrass (0 to 100 scale, 0 is no effect, 100 is complete control): 60
[3]
  Plant response rating, Rice (0 to 100 scale, 0 is no effect, 100 is complete control): 0
[4]; [29]
  Plant response rating, Pigweed, Palmer: 30
[4]; [30]
  Plant response rating, Pigweed, Palmer: 80
[5]; [29]
  Plant response rating, Wheat: 10
[5]; [30]
  Plant response rating, Wheat: 80
[6]; [29]
  Plant response rating, Goosegrass: 80
[6]; [30]
  Plant response rating, Goosegrass: 100
[7]; [29]
  Plant response rating, Ryegrass, Italian: 50
[7]; [30]
  Plant response rating, Ryegrass, Italian: 100
[8]; [28]
  Plant response rating, Wheat: 30
[8]; 125 g ai/ha, 0 to 100 scale
  Plant response rating, Wheat: 40
[9]; [29]
  Plant response rating, Blackgrass: 0
[9]; [30]
  Plant response rating, Blackgrass: 50
[10]; [29]
  Plant response rating, Ragweed: 0
[10]; [30]
  Plant response rating, Ragweed: 60
[11]; [29]
  Plant response rating, Soybean: 0
[11]; [30]
  Plant response rating, Soybean: 30
[12]; [28]
  Plant response rating, Foxtail, Giant: 20
[12]; 125 g ai/ha, 0 to 100 scale
  Plant response rating, Foxtail, Giant: 40
[13]; [28]
  Plant response rating, Horseweed: 30
[13]; 125 g ai/ha, 0 to 100 scale
  Plant response rating, Horseweed: 80
[14]; [28]
  Plant response rating, Corn: 0
[14]; 125 g ai/ha, 0 to 100 scale
  Plant response rating, Corn: 0
[15]
  Plant response rating, Ducksalad (0 to 100 scale, 0 is no effect, 100 is complete control): 70
[16]; [28]
  Plant response rating, Oat, Wild: 0
[16]; 125 g ai/ha, 0 to 100 scale
  Plant response rating, Oat, Wild: 20
[17]; [29]
  Plant response rating, Oat, Wild: 0
[17]; [30]
  Plant response rating, Oat, Wild: 40
[18]; [29]
  Plant response rating, Kochia: 0
[18]; [30]
  Plant response rating, Kochia: 10
[19]; [28]
  Plant response rating, Ragweed: 0
[19]; 125 g ai/ha, 0 to 100 scale
  Plant response rating, Ragweed: 80
[20]; 31 g ai/ha, 10 days
  Plant response rating, Blackgrass: 0
[20]; 125 g ai/ha
  Plant response rating, Blackgrass: 10
[21]; [28]
  Plant response rating, Galium: 40
[21]; 125 g ai/ha, 0 to 100 scale
  Plant response rating, Galium: 60
[22]; [29]
  Plant response rating, Corn: 0
[22]; [30]
  Plant response rating, Corn: 0
[23]; [28]
  Plant response rating, Ryegrass, Italian: 20
[23]; 125 g ai/ha, 0 to 100 scale
  Plant response rating, Ryegrass, Italian: 80
[24]; [29]
  Plant response rating, Foxtail, Giant: 50
[24]; [30]
  Plant response rating, Foxtail, Giant: 100
[25]; [28]
  Plant response rating, Kochia: 0
[25]; 125 g ai/ha, 0 to 100 scale
  Plant response rating, Kochia: 30
[26]; [28]
  Plant response rating, Goosegrass: 30
[26]; 125 g ai/ha, 0 to 100 scale
  Plant response rating, Goosegrass: 80
[27]; [28]
  Plant response rating, Pigweed, Palmer: 0
[27]; 125 g ai/ha, 0 to 100 scale
  Plant response rating, Pigweed, Palmer: 40

## CCOC1CC(c2cc(NS(=O)(=O)C(F)(F)F)c(C)cc2C)=NO1 (stereo not drawn) [Compound 318]
[1]; [28]
  Plant response rating, Soybean: 30
[1]; 125 g ai/ha, 0 to 100 scale
  Plant response rating, Soybean: 40
[2]
  Plant response rating, Barnyardgrass (0 to 100 scale, 0 is no effect, 100 is complete control): 95
[3]
  Plant response rating, Rice (0 to 100 scale, 0 is no effect, 100 is complete control): 0
[4]; [29]
  Plant response rating, Pigweed, Palmer: 80
[4]; [30]
  Plant response rating, Pigweed, Palmer: 100
[5]; [29]
  Plant response rating, Wheat: 0
[5]; [30]
  Plant response rating, Wheat: 50
[6]; [29]
  Plant response rating, Goosegrass: 80
[6]; [30]
  Plant response rating, Goosegrass: 100
[7]; [29]
  Plant response rating, Ryegrass, Italian: 50
[7]; [30]
  Plant response rating, Ryegrass, Italian: 90
[8]; [28]
  Plant response rating, Wheat: 50
[8]; 125 g ai/ha, 0 to 100 scale
  Plant response rating, Wheat: 70
[9]; [29]
  Plant response rating, Blackgrass: 30
[9]; [30]
  Plant response rating, Blackgrass: 70
[10]; [29]
  Plant response rating, Ragweed: 50
[10]; [30]
  Plant response rating, Ragweed: 70
[11]; [29]
  Plant response rating, Soybean: 0
[11]; [30]
  Plant response rating, Soybean: 30
[12]; [28]
  Plant response rating, Foxtail, Giant: 0
[12]; 125 g ai/ha, 0 to 100 scale
  Plant response rating, Foxtail, Giant: 80
[13]; [28]
  Plant response rating, Horseweed: 20
[13]; 125 g ai/ha, 0 to 100 scale
  Plant response rating, Horseweed: 50
[14]; [28]
  Plant response rating, Corn: 30
[14]; 125 g ai/ha, 0 to 100 scale
  Plant response rating, Corn: 60
[15]
  Plant response rating, Ducksalad (0 to 100 scale, 0 is no effect, 100 is complete control): 80
[16]; [28]
  Plant response rating, Oat, Wild: 0
[16]; 125 g ai/ha, 0 to 100 scale
  Plant response rating, Oat, Wild: 10
[17]; [29]
  Plant response rating, Oat, Wild: 0
[17]; [30]
  Plant response rating, Oat, Wild: 10
[18]; [29]
  Plant response rating, Kochia: 60
[18]; [30]
  Plant response rating, Kochia: 70
[19]; [28]
  Plant response rating, Ragweed: 60
[19]; 125 g ai/ha, 0 to 100 scale
  Plant response rating, Ragweed: 80
[20]; 31 g ai/ha, 10 days
  Plant response rating, Blackgrass: 0
[20]; 125 g ai/ha
  Plant response rating, Blackgrass: 50
[21]; [28]
  Plant response rating, Galium: 60
[21]; 125 g ai/ha, 0 to 100 scale
  Plant response rating, Galium: 60
[22]; [29]
  Plant response rating, Corn: 0
[22]; [30]
  Plant response rating, Corn: 70
[23]; [28]
  Plant response rating, Ryegrass, Italian: 10
[23]; 125 g ai/ha, 0 to 100 scale
  Plant response rating, Ryegrass, Italian: 70
[24]; [29]
  Plant response rating, Foxtail, Giant: 30
[24]; [30]
  Plant response rating, Foxtail, Giant: 90
[25]; [28]
  Plant response rating, Kochia: 30
[25]; 125 g ai/ha, 0 to 100 scale
  Plant response rating, Kochia: 90
[26]; [28]
  Plant response rating, Goosegrass: 30
[26]; 125 g ai/ha, 0 to 100 scale
  Plant response rating, Goosegrass: 30
[27]; [28]
  Plant response rating, Pigweed, Palmer: 30
[27]; 125 g ai/ha, 0 to 100 scale
  Plant response rating, Pigweed, Palmer: 50
